# Laboratory results taken from PubChem BioAssay (NCI).
#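 Where inhibition never reached the appropriate level, the endpoint shown equals the highest concentration tested. Otherwise, values were interpolated linearly from a five-concentration, 48-hour dose response in 96-well plates. TGI: concentration producing complete growth inhibition.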
# What was measured:
# Assay in all cases: NCI tumour cell line growth inhibition, 48 h
# UACC-62 melanoma = system: UACC-62 melanoma
# K-562 leukemia = system: K-562 leukemia
# MOLT-4 leukemia = system: MOLT-4 leukemia
# CAKI-1 renal = system: CAKI-1 renal
# DMS 114 small cell lung = system: DMS 114 small cell lung
# IGROV1 ovarian = system: IGROV1 ovarian
# SK-MEL-28 melanoma = system: SK-MEL-28 melanoma
# SF-268 CNS = system: SF-268 CNS
# U251 CNS = system: U251 CNS
# DMS 273 small cell lung = system: DMS 273 small cell lung
# KM20L2 colon = system: KM20L2 colon
# SNB-78 CNS = system: SNB-78 CNS
# COLO 205 colon = system: COLO 205 colon
# SF-295 CNS = system: SF-295 CNS
# HCC-2998 colon = system: HCC-2998 colon
# RPMI-8226 leukemia = system: RPMI-8226 leukemia
# UO-31 renal = system: UO-31 renal
# SN12C renal = system: SN12C renal
# OVCAR-4 ovarian = system: OVCAR-4 ovarian
# SK-MEL-5 melanoma = system: SK-MEL-5 melanoma
# SNB-19 CNS = system: SNB-19 CNS
# SW-620 colon = system: SW-620 colon
# HCT-116 colon = system: HCT-116 colon
# MCF7 breast = system: MCF7 breast
# HCT-15 colon = system: HCT-15 colon
# HL-60(TB) leukemia = system: HL-60(TB) leukemia
# NCI-H226 lung = system: NCI-H226 lung
# LOX IMVI melanoma = system: LOX IMVI melanoma
# DLD-1 colon = system: DLD-1 colon
# SF-539 CNS = system: SF-539 CNS
# SNB-75 CNS = system: SNB-75 CNS
# CCRF-CEM leukemia = system: CCRF-CEM leukemia
# P388/ADR leukemia = system: P388/ADR leukemia
# HOP-18 NSCLC = system: HOP-18 NSCLC
# XF 498 CNS = system: XF 498 CNS
# UACC-257 melanoma = system: UACC-257 melanoma
# SK-MEL-2 melanoma = system: SK-MEL-2 melanoma
# HT29 colon = system: HT29 colon
# OVCAR-3 ovarian = system: OVCAR-3 ovarian
# NCI/ADR-RES ovarian = system: NCI/ADR-RES ovarian
# M19-MEL melanoma = system: M19-MEL melanoma
# MALME-3M melanoma = system: MALME-3M melanoma
# SK-OV-3 ovarian = system: SK-OV-3 ovarian
# NCI-H23 lung = system: NCI-H23 lung
# OVCAR-5 ovarian = system: OVCAR-5 ovarian
# OVCAR-8 ovarian = system: OVCAR-8 ovarian
# NCI-H522 lung = system: NCI-H522 lung
# A498 renal = system: A498 renal
# SN12K1 renal = system: SN12K1 renal
# HOP-62 NSCLC = system: HOP-62 NSCLC
# NCI-H460 lung = system: NCI-H460 lung
# KM12 colon = system: KM12 colon
# EKVX NSCLC = system: EKVX NSCLC
# RXF 393 renal = system: RXF 393 renal
# HOP-92 NSCLC = system: HOP-92 NSCLC
# A549 NSCLC = system: A549 NSCLC
# P388 leukemia = system: P388 leukemia
# MDA-N = system: MDA-N
# M14 melanoma = system: M14 melanoma
# RXF-631 renal = system: RXF-631 renal
# MDA-MB-435 = system: MDA-MB-435
# SR leukemia = system: SR leukemia
# ACHN renal = system: ACHN renal
# DU-145 prostate = system: DU-145 prostate
# 786-0 renal = system: 786-0 renal
# TK-10 renal = system: TK-10 renal
# LXFL 529 NSCLC = system: LXFL 529 NSCLC
# BT-549 breast = system: BT-549 breast
# MDA-MB-231 breast = system: MDA-MB-231 breast
# HS 578T breast = system: HS 578T breast
# PC-3 prostate = system: PC-3 prostate
smiles,measurement,setting,value
N/C(=N\N=C\c1ncccc1O)NO,TGI,UACC-62 melanoma,43 µM
same,TGI,K-562 leukemia,> 60.7 µM
same,TGI,MOLT-4 leukemia,> 64.4 µM
same,TGI,CAKI-1 renal,96.8 µM
same,TGI,DMS 114 small cell lung,> 100 µM
same,TGI,IGROV1 ovarian,> 100 µM
same,TGI,SK-MEL-28 melanoma,> 100 µM
same,TGI,SF-268 CNS,90.8 µM
same,TGI,U251 CNS,> 100 µM
same,TGI,DMS 273 small cell lung,> 59.4 µM
same,TGI,KM20L2 colon,> 100 µM
same,TGI,SNB-78 CNS,> 100 µM
same,TGI,COLO 205 colon,> 39.8 µM
same,TGI,SF-295 CNS,> 77.8 µM
same,TGI,HCC-2998 colon,> 100 µM
same,TGI,RPMI-8226 leukemia,> 100 µM
same,TGI,UO-31 renal,> 86.2 µM
same,TGI,SN12C renal,> 100 µM
same,TGI,OVCAR-4 ovarian,> 100 µM
same,TGI,SK-MEL-5 melanoma,> 31.6 µM
same,TGI,SNB-19 CNS,98.9 µM
same,TGI,SW-620 colon,> 100 µM
same,TGI,HCT-116 colon,> 100 µM
same,TGI,MCF7 breast,> 100 µM
same,TGI,HCT-15 colon,> 100 µM
same,TGI,HL-60(TB) leukemia,> 26.5 µM
same,TGI,NCI-H226 lung,58.1 µM
same,TGI,LOX IMVI melanoma,> 100 µM
same,TGI,DLD-1 colon,> 100 µM
same,TGI,SF-539 CNS,59.1 µM
same,TGI,SNB-75 CNS,> 62.6 µM
same,TGI,CCRF-CEM leukemia,> 47.6 µM
same,TGI,P388/ADR leukemia,11.5 µM
same,TGI,HOP-18 NSCLC,> 100 µM
same,TGI,XF 498 CNS,69.2 µM
same,TGI,UACC-257 melanoma,> 100 µM
same,TGI,SK-MEL-2 melanoma,> 100 µM
same,TGI,HT29 colon,> 100 µM
same,TGI,OVCAR-3 ovarian,> 100 µM
same,TGI,NCI/ADR-RES ovarian,> 85.5 µM
same,TGI,M19-MEL melanoma,> 78.6 µM
same,TGI,MALME-3M melanoma,> 100 µM
same,TGI,SK-OV-3 ovarian,> 84.1 µM
same,TGI,NCI-H23 lung,> 100 µM
same,TGI,OVCAR-5 ovarian,> 100 µM
same,TGI,OVCAR-8 ovarian,> 100 µM
same,TGI,NCI-H522 lung,87.9 µM
same,TGI,A498 renal,> 100 µM
same,TGI,SN12K1 renal,> 69 µM
same,TGI,HOP-62 NSCLC,> 93 µM
same,TGI,NCI-H460 lung,> 100 µM
same,TGI,KM12 colon,> 100 µM
same,TGI,EKVX NSCLC,> 100 µM
same,TGI,RXF 393 renal,> 100 µM
same,TGI,HOP-92 NSCLC,> 100 µM
same,TGI,A549 NSCLC,> 100 µM
same,TGI,P388 leukemia,12.8 µM
CN(C)CC1CC/C(=C\c2ccc3c(c2)OCO3)C1=O (stereo not drawn),TGI,UACC-62 melanoma,30.4 µM
same,TGI,MDA-N,15.6 µM
same,TGI,K-562 leukemia,11.4 µM
same,TGI,MOLT-4 leukemia,13.8 µM
same,TGI,M14 melanoma,15 µM
same,TGI,CAKI-1 renal,23.1 µM
same,TGI,DMS 114 small cell lung,37.3 µM
same,TGI,IGROV1 ovarian,26.9 µM
same,TGI,SK-MEL-28 melanoma,22.9 µM
same,TGI,SF-268 CNS,26.7 µM
same,TGI,U251 CNS,36.1 µM
same,TGI,DMS 273 small cell lung,30.9 µM
same,TGI,KM20L2 colon,36.5 µM
same,TGI,SNB-78 CNS,51 µM
same,TGI,COLO 205 colon,18 µM
same,TGI,RXF-631 renal,31.2 µM
same,TGI,MDA-MB-435,4.43 µM
same,TGI,SF-295 CNS,56.8 µM
same,TGI,SR leukemia,11 µM
same,TGI,HCC-2998 colon,50.7 µM
same,TGI,UO-31 renal,24.8 µM
same,TGI,SN12C renal,30.3 µM
same,TGI,OVCAR-4 ovarian,18.9 µM
same,TGI,ACHN renal,28.5 µM
same,TGI,DU-145 prostate,19.7 µM
same,TGI,SK-MEL-5 melanoma,28 µM
same,TGI,SNB-19 CNS,36 µM
same,TGI,SW-620 colon,14.4 µM
same,TGI,HCT-116 colon,18.6 µM
same,TGI,MCF7 breast,19.8 µM
same,TGI,HCT-15 colon,15 µM
same,TGI,HL-60(TB) leukemia,11 µM
same,TGI,NCI-H226 lung,50.6 µM
same,TGI,LOX IMVI melanoma,3.72 µM
same,TGI,DLD-1 colon,40.3 µM
same,TGI,SF-539 CNS,31 µM
same,TGI,786-0 renal,13 µM
same,TGI,SNB-75 CNS,28.5 µM
same,TGI,CCRF-CEM leukemia,19.7 µM
same,TGI,TK-10 renal,25.1 µM
same,TGI,HOP-18 NSCLC,29.7 µM
same,TGI,XF 498 CNS,32.7 µM
same,TGI,UACC-257 melanoma,20.1 µM
same,TGI,SK-MEL-2 melanoma,22.8 µM
same,TGI,LXFL 529 NSCLC,25.4 µM
same,TGI,HT29 colon,59 µM
same,TGI,OVCAR-3 ovarian,15.3 µM
same,TGI,NCI/ADR-RES ovarian,12.4 µM
same,TGI,M19-MEL melanoma,35.5 µM
same,TGI,MALME-3M melanoma,18.3 µM
same,TGI,SK-OV-3 ovarian,> 57 µM
same,TGI,NCI-H23 lung,24.4 µM
same,TGI,OVCAR-5 ovarian,39.3 µM
same,TGI,OVCAR-8 ovarian,19.2 µM
same,TGI,NCI-H522 lung,8.51 µM
same,TGI,A498 renal,52.1 µM
same,TGI,BT-549 breast,24.9 µM
same,TGI,MDA-MB-231 breast,4.25 µM
same,TGI,HOP-62 NSCLC,> 70.1 µM
same,TGI,HS 578T breast,> 100 µM
same,TGI,NCI-H460 lung,47.9 µM
same,TGI,KM12 colon,18.9 µM
same,TGI,EKVX NSCLC,39.4 µM
same,TGI,RXF 393 renal,29.1 µM
same,TGI,HOP-92 NSCLC,33.1 µM
same,TGI,A549 NSCLC,> 75.3 µM
same,TGI,PC-3 prostate,27.1 µM
COc1ccc2nc(C(=O)c3ccccc3)c(C)cc2c1,TGI,UACC-62 melanoma,> 100 µM
same,TGI,K-562 leukemia,> 100 µM
same,TGI,MOLT-4 leukemia,> 100 µM
same,TGI,M14 melanoma,13.4 µM
same,TGI,CAKI-1 renal,> 100 µM
same,TGI,DMS 114 small cell lung,20.5 µM
same,TGI,IGROV1 ovarian,> 73.1 µM
same,TGI,SK-MEL-28 melanoma,> 62.2 µM
same,TGI,SF-268 CNS,56.3 µM
same,TGI,U251 CNS,10.8 µM
same,TGI,DMS 273 small cell lung,63.5 µM
same,TGI,KM20L2 colon,11 µM
same,TGI,SNB-78 CNS,> 100 µM
same,TGI,COLO 205 colon,> 34.5 µM
same,TGI,RXF-631 renal,> 100 µM
same,TGI,SF-295 CNS,9.23 µM
same,TGI,SR leukemia,> 100 µM
same,TGI,HCC-2998 colon,26.3 µM
same,TGI,RPMI-8226 leukemia,> 100 µM
same,TGI,UO-31 renal,> 57.7 µM
same,TGI,SN12C renal,> 65.8 µM
same,TGI,OVCAR-4 ovarian,> 100 µM
same,TGI,ACHN renal,> 100 µM
same,TGI,SK-MEL-5 melanoma,12.3 µM
same,TGI,SNB-19 CNS,> 100 µM
same,TGI,SW-620 colon,> 37.4 µM
same,TGI,HCT-116 colon,> 40.7 µM
same,TGI,HCT-15 colon,> 40.8 µM
same,TGI,HL-60(TB) leukemia,> 100 µM
same,TGI,NCI-H226 lung,> 86 µM
same,TGI,LOX IMVI melanoma,> 100 µM
same,TGI,DLD-1 colon,> 66.7 µM
same,TGI,SF-539 CNS,13.8 µM
same,TGI,786-0 renal,38.1 µM
same,TGI,SNB-75 CNS,14.4 µM
same,TGI,CCRF-CEM leukemia,> 100 µM
same,TGI,TK-10 renal,76.1 µM
same,TGI,HOP-18 NSCLC,> 52 µM
same,TGI,XF 498 CNS,19.9 µM
same,TGI,UACC-257 melanoma,26.4 µM
same,TGI,SK-MEL-2 melanoma,> 100 µM
same,TGI,LXFL 529 NSCLC,> 100 µM
same,TGI,HT29 colon,11 µM
same,TGI,OVCAR-3 ovarian,> 24.3 µM
same,TGI,M19-MEL melanoma,> 37.7 µM
same,TGI,MALME-3M melanoma,> 39.1 µM
same,TGI,SK-OV-3 ovarian,15.8 µM
same,TGI,NCI-H23 lung,11.1 µM
same,TGI,OVCAR-5 ovarian,> 100 µM
same,TGI,OVCAR-8 ovarian,> 46.3 µM
same,TGI,NCI-H522 lung,5.75 µM
same,TGI,A498 renal,10.3 µM
same,TGI,HOP-62 NSCLC,37.1 µM
same,TGI,NCI-H460 lung,> 100 µM
same,TGI,KM12 colon,> 45.8 µM
same,TGI,EKVX NSCLC,> 100 µM
same,TGI,RXF 393 renal,17.3 µM
same,TGI,HOP-92 NSCLC,67.1 µM
same,TGI,A549 NSCLC,> 70 µM
